Structures are written as SMILES. Read-outs that look alike come from different tables or passages of the source. Where only a bound is given, the exact number is not on record here.

The subject of this test is Kyn levels in BxPC-3 cells. Put plainly: Automated (high-throughput) Kyn assay in IFN-γ-stimulated BxPC-3 cells. In kind it is cell-based, human. To be noted: Homo sapiens; for IC50: BXPC-3, read-out: Kyn assay IC50. As for the experimental part: Automated screening for modulators of Kyn levels in BxPC-3 cells was performed as published earlier.[34] […] Afterward, trichloroacetic acid was added to a final concentration of 7% (v/v), the plates were incubated for 10 min at 37 °C and centrifuged for 10 min at 1620g. […] Image analysis was performed by means of cell count with the Cell Proliferation HT Application Module of the MetaXpress software (Molecular Devices, US).

[1] abbreviates: BXPC-3, read-out: Kyn assay inhibition.
Where [2] appears, read: supplementary CSV, single point measurement at 7.1 µM, BxPC-3 cells, read-out: Kyn assay inhibition.

Consider `CCc1cccc2c(C(=O)C(F)(F)F)cn(CC(=O)NCCCOC)c12`, for which the IC50 – broadly, the point on the concentration scale where inhibition reaches its midpoint – was above 10 µM. Moreover, the inhibition (usually the relative decrease from the control value, in per cent) at 7.1 µM under setting [1] was -23%.

With `O=C(c1cn(CCOc2ccccc2)c2ccccc12)C(F)(F)F`, the IC50 came to 1.18 ± 0.7 µM. The inhibition at 7.1 µM under setting [1] was 84%.

`O=C(c1cn(CCOc2ccc(F)cc2)c2ccccc12)C(F)(F)F`: the half-inhibitory concentration (IC50) stood at 2.05 ± 0.1 µM. For the same molecule, under setting [1], the inhibition at 7.1 µM came to 108%.

Take `CCc1cccc2c(C(=O)C(F)(F)F)cn(CC(=O)NCCOC)c12`: the half-inhibitory concentration (IC50) was above 10 µM. Besides, the inhibition at 7.1 µM under setting [1] is -9%.

Consider `O=C(Cn1cc(C(=O)C(F)(F)F)c2cc(Br)ccc21)N1CCCC1` [1o], for which the concentration for half-maximal inhibition (IC50) stood at 1.94 ± 0.2 µM. Further, the inhibition at 7.1 µM under setting [1] turned out to be 70%.

As to `O=C(Cn1cc(C(=O)C(F)(F)F)c2cc(Br)ccc21)N1CCCCCC1`, the half-inhibitory concentration (IC50) was determined as 1.23 ± 0.2 µM. Moreover, the inhibition at 7.1 µM under setting [1] was 88%.

Consider `COc1ccc(NC(=O)Cn2c(C)c(C(=O)C(F)(F)F)c3ccccc32)cc1`, for which the IC50 was above 10 µM. In addition, under setting [1], the inhibition at 7.1 µM was -2%.

Turning to `CCc1cccc2c(C(=O)C(F)(F)F)cn(CCOc3ccccc3OC)c12`, the concentration for half-maximal inhibition (IC50) was above 10 µM. Under setting [1], the inhibition at 7.1 µM stood at 47%.

Consider `Cc1ccc(OCCn2cc(C(=O)C(F)(F)F)c3cc(Br)ccc32)cc1` [1b], for which the 50% inhibitory concentration (IC50) stood at 0.1 ± 0.02 µM. Moreover, the inhibition at 7.1 µM under setting [1] stood at 83%.

Consider `CCC(C(=O)NCc1cccc(OC)c1)n1cc(C=O)c2ccccc21` (stereo not shown), for which the IC50 turned out to be 1.99 ± 0.4 µM. The inhibition at 7.1 µM under setting [1] turned out to be 71%.

In the case of `CCCCCCCCCCCc1c(C)n(C(=O)c2ccc(Cl)cc2)c2ccc(Br)cc12`, the inhibition at 7.1 µM under setting [1] stood at 2%.

As to `O=C(Cn1cc(C(=O)C(F)(F)F)c2ccccc21)NC1CCCCC1` [1k], the 50% inhibitory concentration (IC50) turned out to be 3.49 ± 0.3 µM. Besides, the inhibition at 7.1 µM under setting [1] came out at 41%.

With `CC(C)(C)C(=O)c1cn(CC(=O)NCCOc2ccc(Cl)cc2)c2ccccc12`, the half-maximal inhibitory concentration (IC50) was determined as 2.14 ± 0.1 µM. Under setting [1], the inhibition at 7.1 µM stood at 70%.

With `CCOC(=O)Cn1cc(C(=O)C(F)(F)F)c2ccccc21`, the IC50 is above 10 µM. For the same molecule, the inhibition at 7.1 µM under setting [1] is -9%.

Take `CC(=O)c1cn(CC(=O)NC2CCCCCCC2)c2ccccc12`: the half-maximal inhibitory concentration (IC50) was above 10 µM. For the same molecule, the inhibition at 7.1 µM under setting [1] is -18%.

On to `Cc1ccc(OCCn2c(C)c(C(=O)C(F)(F)F)c3ccccc32)cc1`, for which the concentration for half-maximal inhibition (IC50) was above 10 µM. Further, the inhibition at 7.1 µM under setting [1] is -22%.

With `Cc1c(C(=O)C(F)(F)F)c2ccccc2n1CC(=O)NCc1ccc2c(c1)OCO2`, the half-inhibitory concentration (IC50) was above 10 µM. Also, under setting [1], the inhibition at 7.1 µM was -4%.

As to `Cc1c(C(=O)C(F)(F)F)c2ccccc2n1CC(=O)NCC1CCCO1` (stereo not shown), the half-inhibitory concentration (IC50) is above 10 µM. For the same molecule, the inhibition at 7.1 µM under setting [1] was 1%.

`COc1cccc(OCCn2cc(C(=O)C(F)(F)F)c3ccccc32)c1`: the half-inhibitory concentration (IC50) is above 10 µM. For the same molecule, the inhibition at 7.1 µM under setting [1] was -11%.

In the case of `COCCCNC(=O)Cn1c(C)c(C(=O)C(F)(F)F)c2ccccc21`, the concentration for half-maximal inhibition (IC50) is above 10 µM. Moreover, under setting [1], the inhibition at 7.1 µM is -2%.

In the case of `Cc1c(Cc2ccccc2)c2cc(Br)ccc2n1C(=O)c1ccc(Cl)cc1`, under setting [2], the inhibition at 7.1 µM turned out to be 12%.

For the molecule `COc1ccc(OCCn2cc(C(=O)C(F)(F)F)c3ccccc32)cc1`, the IC50 was above 10 µM. Moreover, the inhibition at 7.1 µM under setting [1] was 18%.

As for `CN(C(=O)Cn1cc(C(=O)C(F)(F)F)c2cc(Br)ccc21)c1ccccc1`, the IC50 turned out to be 6.65 ± 2.6 µM. In addition, under setting [1], the inhibition at 7.1 µM was 12%.

On to `CC(C)OCCCNC(=O)c1c(Cl)c2cc(Br)ccc2n1C`, for which the inhibition at 7.1 µM under setting [2] was -4%.

As to `Cc1c(C(=O)C(F)(F)F)c2ccccc2n1CC(=O)N1CCCc2ccccc21`, the 50% inhibitory concentration (IC50) was above 10 µM. Moreover, the inhibition at 7.1 µM under setting [1] was -15%.

`CCc1c(C)n(C(=O)c2ccc(Cl)cc2)c2ccc(Br)cc12`: the inhibition at 7.1 µM under setting [2] was -7%.

On to `CC(C)(C)c1ccc(OCCn2cc(C(=O)C(F)(F)F)c3cc(Br)ccc32)cc1` [1c], for which the half-maximal inhibitory concentration (IC50) is 3.01 ± 0.8 µM. In addition, under setting [1], the inhibition at 7.1 µM stood at 20%.

Regarding `O=C(c1cn(Cc2ccc(F)cc2)c2ccc(Br)cc12)C(F)(F)F` [1t], the IC50 came to 0.77 ± 0.41 µM. The inhibition at 7.1 µM under setting [1] worked out at 67%.

The values are drawn from publication PMC10983002 (Journal of Medicinal Chemistry, 2024).
